Results reported in the NIST ThermoML archive (doi:10.1021/je5007696).
± gives the expanded uncertainty stated by the source.

Experiment: xn = mol fraction of the nth substance listed
Settings: 100 kPa, Liquid, Concentric cylinders viscometry

COC(=O)CCCCC(=O)OC [dimethyl 1,6-hexanedioate] + CCC(C)=O
viscosity [mPa·s]
Settings	x1 = 0.1002	x1 = 0.2002	x1 = 0.3002	x1 = 0.4004	x1 = 0.5001	x1 = 0.5999	x1 = 0.6998	x1 = 0.7994	x1 = 0.8997	x1 = 1
288.15 K	0.5707 ± 0.0081	0.7368 ± 0.0085	0.9419 ± 0.0092	1.183 ± 0.01	1.467 ± 0.011	1.802 ± 0.013	2.191 ± 0.015	2.636 ± 0.017	3.16 ± 0.021	3.751 ± 0.024
293.15 K	0.5434 ± 0.008	0.6952 ± 0.0084	0.8803 ± 0.009	1.096 ± 0.0097	1.347 ± 0.011	1.64 ± 0.012	1.974 ± 0.014	2.353 ± 0.016	2.794 ± 0.019	3.289 ± 0.022
298.15 K	0.5166 ± 0.0079	0.6563 ± 0.0083	0.824 ± 0.0088	1.019 ± 0.0095	1.242 ± 0.01	1.498 ± 0.012	1.79 ± 0.013	2.12 ± 0.015	2.491 ± 0.017	2.91 ± 0.02
303.15 K	0.4912 ± 0.0079	0.6199 ± 0.0082	0.7742 ± 0.0087	0.9509 ± 0.0093	1.15 ± 0.01	1.38 ± 0.011	1.635 ± 0.012	1.921 ± 0.014	2.241 ± 0.016	2.604 ± 0.018
308.15 K	0.4667 ± 0.0078	0.5865 ± 0.0081	0.7277 ± 0.0085	0.8892 ± 0.0091	1.069 ± 0.0098	1.274 ± 0.011	1.5 ± 0.012	1.75 ± 0.013	2.033 ± 0.015	2.342 ± 0.017
313.15 K	0.4425 ± 0.0078	0.555 ± 0.0081	0.6853 ± 0.0084	0.8331 ± 0.0089	0.9961 ± 0.0095	1.181 ± 0.01	1.382 ± 0.011	1.604 ± 0.012	1.851 ± 0.014	2.121 ± 0.015
318.15 K	0.4199 ± 0.0077	0.525 ± 0.008	0.6465 ± 0.0083	0.7827 ± 0.0088	0.9324 ± 0.0093	1.098 ± 0.01	1.279 ± 0.011	1.476 ± 0.012	1.695 ± 0.013	1.933 ± 0.015
323.15 K	0.4037 ± 0.0077	0.502 ± 0.0079	0.6165 ± 0.0082	0.7425 ± 0.0086	0.883 ± 0.0091	1.036 ± 0.0097	1.202 ± 0.011	1.381 ± 0.011	1.577 ± 0.013	1.79 ± 0.014
